From patent publication US4902791A, “Nitrosourea derivatives, process for their preparation and medicaments containing them” (Sanofi S.A., priority 1983, dated 1990)
≈ marks a conversion by molar mass, not a printed value.

Key:
[1] = test system: Tumor LEWIS 3LL; assay: "in vivo" activity on Lewis tumor, 20 mg/kg i.p. days 1, 5, 9; set-up: species or system mouse; conditions: for percentage of cured mice: surviving more than 60 days
Description: Procedure was under the conditions which have just been described previously with regard to melanoma B16, by injecting the tumor cells, in the proportion of 2×10^6 per mouse, in the volume of 0.2 ml.
(§1) The protocol was identical for the 3 tumors and the 5 compounds of the invention to be tested.
(§2) As regards the experimental series to be treated, each mouse received, at days 1, 5 and 9, intraperitoneally, a dose of 20 mg/kg of the compound to be tested, in the volume of 0.2 ml of neutralized and sterilized olive oil.
(§3) As regards the control series, each mouse received, intraperitoneally, 0.2 ml of neutralized and sterilized olive oil.
(§4) The results are expressed by the relative increase in survival (T/C×100) calculated from the average survival of the treated animals (T) and that of the control animals (C)
(§5) The mice surviving more than 60 days were considered as cured.
(§6) The figures between parentheses indicate the percentage of cured mice.

[2] = test system: L 1210 USA Tumor; assay: "in vivo" activity on L1210 U.S.A. tumor, 5 mg/kg i.p. days 1, 5, 9; set-up: species or system mouse
Description: The tumor L1210 U.S.A. is more resistant than tumor L1210 IGR.
(§7) The experiments were identical to those described in preceding paragraph 4 but lower doses were used.
There were inoculated into the mice, 10^5 tumor cells of L1210 U.S.A. intraperitoneally in a volume of 0.2 ml.
At days 1, 5 and 9, the compounds of the invention under test were injected intraperitoneally, at a lower dose than that used in the experiment described at 4, that is to say in the proportion of 5 mg/kg.

[3] = test system: L 1210 IGR TUMOR; assay: "in vivo" activity on L1210 IGR tumor, 5 mg/kg i.p. days 1, 5, 9; set-up: species or system mouse
Description: as §7
The same protocol was carried out with the tumor L1210 IGR, by inoculating 10^5 tumor cells of L1210 IGR intraperitoneally in the volume of 0.2 ml then, at days 1, 5 and 9, there were injected intraperitoneally 5 mg/kg of each of the compounds to be tested.

[4] = test system: leucemia L 1210 IGR; assay: "in vivo" activity on leucemia L1210 IGR, 20 mg/kg i.p. days 1, 5, 9; set-up: species or system mouse; conditions: for percentage of cured mice: surviving more than 60 days
Description: Female DBA2 mice were used, about 8 weeks old and weighing about 20 g from the IFFA-CREDO center (les Oncins, 69210 Arbresles)
At day "0", each mouse received intraperitoneally an inoculum of […] in a volume of 0.2 ml.
After tumoral graft, the mice were distributed at random into 21 cages of 5 animals, themselves then distributed, by drawing lots, into 6 experimental series. Within these 6 experimental series, there were constituted a control series of 6 cages and 5 experimental series of 3 cages each, and of which the mice were intended to be treated by the compounds of the invention.
as §1, §2, §3, §4, §5, §6

[5] = test system: L 1210 cell; assay: 20% cytotoxic index, trypan blue exclusion, 24 h (TEST N° 1); format: cell-based, mouse; set-up: key to DOSE CORRESPONDING TO A 20% CYTOTOXIC INDEX: N.S.: not significant; conditions: L1210 cells, 24 hours at 37° C.; for IC20: Mus musculus, read-out: DOSE COR[…] A 20% CYTOTOXIC INDEX, read-out: DOSE CORRESPONDING TO A 20% CYTOTOXIC INDEX
Description: (§8) The test used is that of W. J. Durkin et al. Cancer Research 1979, 39, 402-407, modified.
(§9) All the nitrosoureas were dissolved in 70% ethanol in the proportion of 10 mg/ml.
1--Determination of the 20% cytotoxic index
100 μl of an L 1210 cell suspension (10^6 cells per ml) in R P M I 1640 culture medium supplemented with 10% of fetal calf serum and 40 μg/ml of gentamycin, containint various doses of the products to be tested (0 to 100 μg/ml) were incubated 24 hours at 37° C. At the end of this time, the cell viability is determined by the trypan blue exclusion test. The cytotoxic index is defined by the formula: [formula]
The amount of ethanol is the same in the cultures containing the products to be tested and in the control cultures (this amount has no effect either on growth nor on cell viability).
For each product the dose which gives a cytotoxic index of 20% is determined.

[6] = test system: L 1210 cells; assay: cytotoxic index after 1 h contact, potential "in vivo" activity (TEST N° 2); format: cell-based, mouse; set-up: key to CYTOTOXIC INDEX: N.S.: not significant; conditions: for CYTOTOXIC INDEX: 1 hour contact at dose giving 20% index, read after 48 hours; for POTENTIAL "IN VIVO" ACTION: active if cytotoxic index ≥40%
Description: as §8, §9
2--Determination of the potential "in vivo" activity
L 1210 cells, under conditions similar to the preceding protocol, were contacted for 1 hour with a dose of the various products tested corresponding to a cytotoxic index equal to 20%. After this time, the cells were placed in culture medium not containing nitrosoureas and incubated at 37° C. After 48 hours, the cytotoxic index was determined.

[7] = test system: melanoma B16; assay: "in vivo" activity on melanoma B16, 20 mg/kg i.p. days 1, 5, 9; set-up: species or system mouse; conditions: for percentage of cured mice: surviving more than 60 days
Description: Female C57 B 1/6 mice were used, about 8 weeks old and weighing about 20 g, from the IFFA-CREDO center.
At day "0", each mouse received intraperitoneally an inoculum of 2×10^6 tumor cells in a volume of 0.5 ml.
After tumoral graft, distribution at random was carried out as indicated above, to obtain a control series of 8 cages and 5 experimental series of 4 cages each, and of which the mice were intended to be treated by the compounds of the invention.
as §1, §2, §3, §4, §5, §6

[8] = test system: melanoma B16; assay: antitumor activity on melanoma B16, products of examples 33-39, I.P.; format: in vivo, mouse; conditions: B6 D2 F1, I.P. D1, D5, D9, 3×10 mg/kg
Description: The experiments are always carried out on SPF female mice, B6 D2 F1/JIco (first generation hybrids between the lines C57BL/6 and DBA/2).
On the day of the graft (day 0), an inoculum of 2×10^6 tumor cells in a volume of 0.5 ml is administered to each mouse by the intraperitoneal route (I.P.). This inoculum is prepared from a sub-cutaneous tumor excised from a donor female mouse. After excision the tumor is fragmented by means of a pair of scissors in the NCTC 109 medium. After filtration through sterile gauze in order to remove large cellular fragments, the homogeneous cell suspension obtained is counted by means of a MALASSEZ cell and diluted to the desired concentration (4×10^6tumor cells per ml) by dilution with the NCTC 109 medium.
This was performed in the manner described for the leukemia L1210 (see above).
(§10) The doses of the products of the invention used in the different experiments are expressed in milligrams per kilogram of body weight.
(§11) The products to be injected were dissolved in isotonic sodium chloride solution.
(§12) or 3 I.P. injections on D1, D5, D9.
(§13) In each experiment the animals of the control group received 1 or more injections, depending on the experimental protocol used, by the same route (I.P. or I.V.) of the same volume (0.2 ml/20 g) of the vehicle without the active principle (isotonic sodium chloride solution).
(§14) the number and percentage of the total of the mice surviving to D60,
(§15) the T/C×100 for the treated groups.
(§16) T representing the mean survival time of the mice in the treated group,
(§17) C representing the mean survival time of the mice in the control group (controls).

[9] = toxicological results, single I.P. dose, DL0 and DL50; format: in vivo, mouse; conditions: mouse, in vivo, ip, mice
Excerpt: DL0, DL50, single I.P. dose administered to the aforementioned strains of mice.

[10] = test system: L1210 U.S.A.; assay: antitumor activity on leukemia L1210 U.S.A., products of examples 33-39, I.P.; format: in vivo, mouse
Description: The experiments were always carried out on female mice which were specific pathogen-free (S. P. F.),
either of the line DBA/2JIco
or of the line B6 D2 F1/JIco (first generation hybrids between the lines C57BL/6 and DBA/2).
On the day of the graft (by convention day 0=D0) an inoculum of 1×10^5 tumor cells in a volume of 0.2 ml is administered to each mouse by the intraperitoneal route (I.P.).
This inoculum is prepared by diluting ascites fluid taken from the peritoneum of a donor female mouse in NCTC 109 medium (Eurobio Laboratories, Paris, France), counting of the cells in a MALASSEZ cell under a microscope and adjustment of the concentration to 5×10^5cells […] by means of the same medium.
The tumor line is an American strain of the line L1210.
After the tumor graft, the mice are distributed at random in cages of 5 animals. Subsequently, these cages containing 5 mice are themselves distributed at random into a control group (control) and groups treated with the I.C. products.
as §10, §11
2 protocols for treatment were used in the different experiments:
either a single injection on D1, by the intraperitoneal (I.P.) or intravenous (I.V.) route,
as §12, §13, §14, §15, §16, §17

[11] = B6 D2 F1, I.P. D1, D5, D9, 3×1.25 mg/kg
[12] = B6 D2 F1, I.P. D1, D5, D9, 3×5 mg/kg

SMILES | relative increase in survival (T/C×100) [1] | percentage of cured mice [1] [%] | Average survival ±2 σm [2] | Median survival [2] | T/C × 100 (average survival) [2] | T/C × 100 (median survival) [2] | Average survival ±2 σm [3] | Median survival [3] | T/C × 100 (average survival) [3] | T/C × 100 (median survival) [3] | relative increase in survival (T/C×100) [4] | percentage of cured mice [4] [%] | CYTOTOXIC INDEX [6] | relative increase in survival (T/C×100) [7] | percentage of cured mice [7] [%] | IC20 [5] [µg/mL] | POTENTIAL "IN VIVO" ACTION [6] | further results
CO[C@@H]1C[C@@H](O)[C@H](O)[C@@H](CNC(=O)N(CCCl)N=O)O1 [IC 1350] | 325 | 40 | 10,5 ± 0,74 | 10,25 | 126 | 118 | 14,3 ± 1,23 | 14,25 | 158 | 157 | 362 | 20 | N.S. | 225 | 5 |  |  | DOSE CORRESPONDING TO A 20% CYTOTOXIC INDEX [5]: N.S.
CO[C@@H]1C[C@@H](NC(=O)N(CCCl)N=O)[C@H](OC)[C@@H](C)O1 [IC 1373, Methyl 3-[3-(2-chloroethyl) 3-nitrosoureido] 2,3,6-tridesoxy 4-O-methyl alpha-D-arabinohexopyranoside] | 316 | 30 | 10,6 ± 0,44 | 10,6 | 123 | 122 | 12,9 ± 0,55 | 13,1 | 142 | 145 | .infin. (The sign 00 indicates that 50% at least of the mice were cured) | 100 | 68% | 165 | 0 | 80 (≈ 258 µM) | + (if the cytotoxic index was equal to or greater than 40%, the product concerned would be active "in vivo" in the mouse) | 
CO[C@@H]1C[C@@H](N(C)C(=O)N(CCCl)N=O)[C@H](O)[C@@H](C)O1 [IC 1375, Methyl 3-[3-(2-chloroethyl) 1-methyl 3-nitrosoureido] 2,3,6-tridesoxy α-D-arabinohexopyranoside] |  |  |  |  |  |  |  |  |  |  |  |  | 69% |  |  | 60 (≈ 194 µM) | + (if the cytotoxic index was equal to or greater than 40%, the product concerned would be active "in vivo" in the mouse) | 
CO[C@H]1C[C@@H](NC(=O)N(CCCl)N=O)[C@H](O)[C@@H](CO)O1 [IC. 85-1673, methyl 3-[3-(2-chloroethyl) 3-nitrosoureido] 2,3-dideoxy β-D-arabino-hexopyranoside] |  |  |  |  |  |  |  |  |  |  |  |  |  |  |  |  |  | Number of survivors [8]: 4/10; T/C [8]: 232; LD50 [9]: ~20 mg/kg; Number of survivors [10, 11]: 0/10; T/C [10, 11]: 158; Number of survivors [10, 12]: 6/10; T/C [10, 12]: 626
